Assay results taken from ChEMBL document CHEMBL5331051, “Cationic, amphipathic small molecules based on a triazine-piperazine-triazine scaffold as a new class of antimicrobial agents” (Eur J Med Chem, 2022).
In brackets after ≈: the same amount, converted by molar mass. Activity calls are given as the source filed them. No cut-off for these calls is given here.

Assays:
Pseudomonas aeruginosa [1] = assay: Antibacterial activity against Pseudomonas aeruginosa KCTC 1637 strain assessed as bacterial growth inhibition measured at 18 to 24 hrs by microdilution assay; assay type: functional; conditions: time 18-24 hrs
Staphylococcus aureus [2] = assay: Antibacterial activity against Staphylococcus aureus KCTC 1621 strain assessed as bacterial growth inhibition measured at 18 to 24 hrs by microdilution assay; assay type: functional; conditions: time 18-24 hrs
Escherichia coli = assay: Antibacterial activity against Escherichia coli KCTC 1682 strain assessed as bacterial growth inhibition measured at 18 to 24 hrs by microdilution assay; assay type: functional; conditions: time 18-24 hrs
Erythrocyte = assay: Hemolytic activity in sheep RBC assessed as minimal hemolytic concentration causing 10% hemolysis incubated for 1 hr by ELISA; assay type: toxicity, cell-based, Ovis aries
[3] = tested on: Staphylococcus epidermidis; assay: Antibacterial activity against Staphylococcus epidermidis KCTC 1917 strain assessed as bacterial growth inhibition measured at 18 to 24 hrs by microdilution assay; assay type: functional; conditions: time 18-24 hrs
Staphylococcus aureus [4] = assay: Antibacterial activity against methicillin-resistant Staphylococcus aureus CCARM 3095 strain assessed as bacterial growth inhibition measured at 18 to 24 hrs by microdilution assay; assay type: functional; conditions: time 18-24 hrs
Staphylococcus aureus [5] = assay: Antibacterial activity against methicillin-resistant Staphylococcus aureus CCARM 3090 strain assessed as bacterial growth inhibition measured at 18 to 24 hrs by microdilution assay; assay type: functional; conditions: time 18-24 hrs
Pseudomonas aeruginosa [6] = assay: Bactericidal activity against multidrug-resistant Pseudomonas aeruginosa CCARM 2095 measured after 24 hrs by time-kill kinetics assay; assay type: functional, organism-based
Staphylococcus aureus [7] = assay: Antibacterial activity against methicillin-resistant Staphylococcus aureus CCARM 3089 strain assessed as bacterial growth inhibition measured at 18 to 24 hrs by microdilution assay; assay type: functional; conditions: time 18-24 hrs
Enterococcus faecium = assay: Antibacterial activity against vancomycin-resistant Enterococcus faecium ATCC 51559 strain assessed as bacterial growth inhibition measured at 18 to 24 hrs by microdilution assay; assay type: functional; conditions: time 18-24 hrs
Pseudomonas aeruginosa [8] = assay: Additive antibacterial activity against multidrug-resistant Pseudomonas aeruginosa CCARM 2095 strain assessed as bacterial growth inhibition by checkerboard assay; assay type: functional
Pseudomonas aeruginosa [9] = assay: Antibacterial activity against multidrug-resistant Pseudomonas aeruginosa CCARM 2109 strain assessed as bacterial growth inhibition measured at 18 to 24 hrs by microdilution assay; assay type: functional; conditions: time 18-24 hrs
Pseudomonas aeruginosa [10] = assay: Bacteriostatic activity against multidrug-resistant Pseudomonas aeruginosa CCARM 2095 measured after 24 hrs by time-kill kinetics assay; assay type: functional, organism-based
Pseudomonas aeruginosa [11] = assay: Antibacterial activity against multidrug-resistant Pseudomonas aeruginosa CCARM 2095 strain assessed as bacterial growth inhibition measured at 18 to 24 hrs by microdilution assay; assay type: functional; conditions: time 18-24 hrs
Pseudomonas aeruginosa [12] = assay: Synergistic antibacterial activity against multidrug-resistant Pseudomonas aeruginosa CCARM 2095 strain assessed as bacterial growth inhibition by checkerboard assay; assay type: functional
Staphylococcus aureus [13] = assay: Antibacterial activity against methicillin-resistant Staphylococcus aureus CCARM 3089 strain assessed as bacterial growth inhibition by checkerboard assay; assay type: functional

In the case of `NCCCN(CCCN)c1nc(NCc2ccccc2)nc(N2CC(Cc3ccccc3)N(c3nc(NCc4ccc5ccccc5c4)nc(N(CCCN)CCCN)n3)CC2Cc2ccccc2)n1` (stereo unspecified), the MIC (Pseudomonas aeruginosa [1]) was 18.7 µM (≈ 17.6 µg/mL), the MIC (Staphylococcus aureus [2]) was 4.7 µM (≈ 4.43 µg/mL) and the MIC (Escherichia coli) was 9.4 µM (≈ 8.87 µg/mL). It also gave an MHC (Erythrocyte) of 189.5 µM and an MIC [3] of 4.7 µM (≈ 4.43 µg/mL).
In the case of `NCCCNc1nc(NCCCN)nc(N2CC(Cc3ccccc3)N(c3nc(NCCCN)nc(NCCCN)n3)CC2Cc2ccccc2)n1` (stereo unspecified), the MIC (Pseudomonas aeruginosa [1]) was 22.4 µM (≈ 16 µg/mL), the MIC (Staphylococcus aureus [2]) was 11.2 µM (≈ 7.99 µg/mL) and the MIC (Escherichia coli) was 11.2 µM (≈ 7.99 µg/mL). The MHC (Erythrocyte) was greater than 358.4 µM and the MIC [3] was 11.2 µM (≈ 7.99 µg/mL).
With `O=C(O)c1cn(C2CC2)c2cc(N3CCNCC3)c(F)cc2c1=O` [CIPROFLOXACIN] the MIC (Staphylococcus aureus [4]) was greater than 6180 µM, the MIC (Staphylococcus aureus [5]) was greater than 6180 µM and the Activity (Pseudomonas aeruginosa [6]) was “inactive”. For the same molecule, the MIC (Staphylococcus aureus [7]) was greater than 6180 µM, the MIC (Enterococcus faecium) was 1550 µM (≈ 512 µg/mL) and the MIC (Pseudomonas aeruginosa [8]) was 1020 µg/mL. For the same molecule, the MIC (Pseudomonas aeruginosa [9]) was greater than 6180 µM, the Activity (Pseudomonas aeruginosa [10]) was “inactive” and the MIC (Pseudomonas aeruginosa [11]) was 3090 µM (≈ 1020 µg/mL). It also gave an MIC (Pseudomonas aeruginosa [12]) of 1020 µg/mL and an MIC (Staphylococcus aureus [13]) of 512 µg/mL.
With `NCCCNc1nc(NCCCN)nc(N2CCN(c3nc(NCCCN)nc(NCCCN)n3)C(Cc3ccccc3)C2)n1` (stereo unspecified) the MIC (Pseudomonas aeruginosa [1]) was 51.2 µM (≈ 31.9 µg/mL), the MIC (Staphylococcus aureus [2]) was 25.6 µM (≈ 15.9 µg/mL) and the MIC (Escherichia coli) was 51.2 µM (≈ 31.9 µg/mL). The MHC (Erythrocyte) was greater than 409.6 µM and the MIC [3] was 25.6 µM (≈ 15.9 µg/mL).
In the case of `N=C(N)NCCCNc1nc(NCCCN)nc(N2CCN(c3nc(NCCCN)nc(NCCCN)n3)CC2Cc2ccccc2)n1` (stereo unspecified), the MIC (Pseudomonas aeruginosa [1]) was 24 µM (≈ 16 µg/mL), the MIC (Staphylococcus aureus [2]) was 12 µM (≈ 7.98 µg/mL) and the MIC (Escherichia coli) was 24 µM (≈ 16 µg/mL). For the same molecule, the MHC (Erythrocyte) was greater than 384 µM and the MIC [3] was 12 µM (≈ 7.98 µg/mL).
Molecule `N=C(N)NCCCN(CCCNC(=N)N)c1nc(NCc2ccccc2)nc(N2CC(Cc3ccccc3)N(c3nc(NCc4ccc5ccccc5c4)nc(N(CCCNC(=N)N)CCCNC(=N)N)n3)CC2Cc2ccccc2)n1` (stereo unspecified) has an MIC (Pseudomonas aeruginosa [1]) of 7.8 µM (≈ 8.67 µg/mL), an MIC (Staphylococcus aureus [2]) of 15.7 µM (≈ 17.4 µg/mL) and an MIC (Escherichia coli) of 31.4 µM (≈ 34.9 µg/mL). The MHC (Erythrocyte) was 56.8 µM and the MIC [3] was 3.9 µM (≈ 4.33 µg/mL).
Molecule `N=C(N)NCCN(CCNC(=N)N)c1nc(NCc2ccccc2)nc(N2CC(Cc3ccccc3)N(c3nc(NCc4ccccc4)nc(N(CCNC(=N)N)CCNC(=N)N)n3)CC2Cc2ccccc2)n1` (stereo unspecified) has an MIC (Pseudomonas aeruginosa [1]) of 8.7 µM (≈ 8.75 µg/mL), an MIC (Staphylococcus aureus [2]) of 4.4 µM (≈ 4.42 µg/mL) and an MIC (Escherichia coli) of 8.7 µM (≈ 8.75 µg/mL). For the same molecule, the MHC (Erythrocyte) was 124.5 µM and the MIC [3] was 4.4 µM (≈ 4.42 µg/mL).
Work on `N=C(N)NCCCNc1nc(NCCCNC(=N)N)nc(N2CCN(c3nc(NCCCNC(=N)N)nc(NCCCNC(=N)N)n3)C(Cc3ccccc3)C2)n1` (stereo unspecified) yielded an MIC (Pseudomonas aeruginosa [1]) of 20.2 µM (≈ 16 µg/mL), an MIC (Staphylococcus aureus [2]) of 20.2 µM (≈ 16 µg/mL) and an MIC (Escherichia coli) of 20.2 µM (≈ 16 µg/mL). It also gave an MHC (Erythrocyte) greater than 322.6 µM and an MIC [3] of 20.2 µM (≈ 16 µg/mL).
Molecule `N=C(N)NCCCCNc1nc(NCCCCNC(=N)N)nc(N2CCN(c3nc(NCCCCNC(=N)N)nc(NCCCCNC(=N)N)n3)C(Cc3ccccc3)C2)n1` (stereo unspecified) has an MIC (Pseudomonas aeruginosa [1]) of 9.4 µM (≈ 7.96 µg/mL), an MIC (Staphylococcus aureus [2]) of 9.4 µM (≈ 7.96 µg/mL) and an MIC (Escherichia coli) of 18.9 µM (≈ 16 µg/mL). It also gave an MHC (Erythrocyte) greater than 302.1 µM and an MIC [3] of 4.7 µM (≈ 3.98 µg/mL).
With `N=C(N)NCCNc1nc(NCCNC(=N)N)nc(N2CCN(c3nc(NCCNC(=N)N)nc(NCCNC(=N)N)n3)C(Cc3ccccc3)C2)n1` (stereo unspecified) the MIC (Pseudomonas aeruginosa [1]) was 21.8 µM (≈ 16 µg/mL), the MIC (Staphylococcus aureus [2]) was 21.8 µM (≈ 16 µg/mL) and the MIC (Escherichia coli) was 21.8 µM (≈ 16 µg/mL). For the same molecule, the MHC (Erythrocyte) was greater than 348.2 µM and the MIC [3] was 21.8 µM (≈ 16 µg/mL).
In the case of `NCCNc1nc(NCCN)nc(N2CCN(c3nc(NCCN)nc(NCCN)n3)C(Cc3ccccc3)C2)n1` (stereo unspecified), the MIC (Pseudomonas aeruginosa [1]) was 28.2 µM (≈ 16 µg/mL), the MIC (Staphylococcus aureus [2]) was 56.4 µM (≈ 32 µg/mL) and the MIC (Escherichia coli) was 56.4 µM (≈ 32 µg/mL). The MHC (Erythrocyte) was greater than 451.1 µM and the MIC [3] was 56.4 µM (≈ 32 µg/mL).
